The target in experiment [1] is T1, Equ c 1.0102 (Equus caballus, UniProt A0A3Q2HX90).
T1 construct: mature protein, residues 16-187 (signal peptide removed), C-terminal His6 tag, codon-optimized synthetic cDNA in pET-21d(+), E. coli Rosetta-gami 2(DE3), purified by HisTrap
T1 sequence (A0A3Q2HX90 16-187): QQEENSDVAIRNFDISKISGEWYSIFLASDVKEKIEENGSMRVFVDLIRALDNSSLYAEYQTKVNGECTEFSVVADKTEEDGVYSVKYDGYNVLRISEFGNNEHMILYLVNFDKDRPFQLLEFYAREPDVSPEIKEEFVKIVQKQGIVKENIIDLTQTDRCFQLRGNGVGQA
The experiment is described as follows: fluorescent probe binding (excitation […] nm, emission […] nm). The note with it: read-out: dissociation constant.

Experiment [2] has as its target T1, Equ c 1.0102. The description is as above.
Experiment [3] has as its target T1, Equ c 1.0102. The experiment is described as follows: competitive displacement of fluorescent probe 1-NPN, 12-point titration, one-site fit. The class given is binding.

By EC50 is commonly meant the concentration needed to bring the measured effect to its halfway point. The low end stands for a more potent agent, the high end for a less potent agent. As for `c1ccc(Nc2cccc3ccccc23)cc1` [1-NPN], in experiment [1], the Kd was determined as 6.4 µM. For the same compound, the EC50 in experiment [2] stood at 5 µM. The term Ki denotes a dissociation constant, usually derived from enzyme kinetics or from competition with a known ligand. Read a high Ki as weaker binding. In experiment [3], `CCCCCCCCCCO` [1-decanol] had an inhibition constant Ki of 1.1 µM.

In turn, `CC(C)CCCC(C)CCO` (stereo not shown) [3,7-dimethyl-1-octanol] yielded an inhibition constant Ki in experiment [3] of 0.6 µM.
